In data set [1] the test system is breast cancer cell line, MDA-MB231. The data set can be described thus: Xenograft model efficacy study, breast cancer MDA-MB231, in female athymic nude mice. Conditions: iv; for % TGI, percent tumor growth inhibition compared to Group 1 / MTV (n) Day 20, median tumor volume: Doxorubicin 5, Composition 7 10, Mitoxantrone 3, Composition 6 6 mg/kg, Day 20. The procedure: An efficacy study against breast cancer tumor was carried out on the materials from Example 8 (Composition 7) and Example 7 (Composition 6).

For data set [2] the following is noted: mouse model, documented; cited from earlier work.
Data set [3] in a line: Dialysis study on free form of doxorubicin, HSA/DOX mixture and Composition 7. The class given is physicochemical. Conditions: PBS pH=7.4. The procedure:
The dialysis tube was sealed and put into a glass beaker containing 100 mL of either PBS buffer (pH=7.4) or acetate buffer (pH=5.5) with a magnetic stirring bar. With constant stirring, aliquots (500 uL) at different time points were taken from the glass beaker and analyzed by UV spectrometer. […] It is most interesting to notice that HSA-encapsulated DOX is almost 3.5 times faster at pH=5.5 than at pH=7.4 for being dialyzed out from the dialysis tube.

The conditions of data set [4]: congestive heart failure incidents; cited from earlier work.

Consider `O=C1c2c(O)ccc(O)c2C(=O)c2c(NCCNCCO)ccc(NCCNCCO)c21` [Mitoxantrone, mitoxantrone], for which, in data set [1] (qwk × 3, 20 day study), the “Deaths NTR (non-treatment-related death)” value is listed as 0; the “Deaths TR (treatment-related death)” value is reported as 0; the “Mean BW Nadir, lowest group mean body weight as % change from Day 1” value is on record as −0.2%; the “Regressions CR (complete regression)” value is 0. The “Regressions PR (partial regression)” value in data set [1] (qwk × 3, 20 day study) amounted to 0. In data set [1] (qwk × 3), the “% TGI, percent tumor growth inhibition compared to Group 1” value was 27% and the “MTV (n) Day 20, median tumor volume” value is reported as 498 (8) mm^2. Moreover, the “Day of Mean BW Nadir” value in data set [1] (mouse, in vivo) was determined as 8 days. In addition, the “Maximum tolerated dose (MTD)” value in data set [2] was 3 mg/kg.
Regarding `COc1cccc2c1C(=O)c1c(O)c3c(c(O)c1C2=O)C[C@@](O)(C(=O)CO)C[C@@H]3O[C@H]1C[C@H](N)[C@H](O)[C@H](C)O1` [Doxorubicin, doxorubicin], the “Dialysis behaviour of free form” value in data set [3] is “precipitated in the dialysis bag due to the poor solubility at pH=7.4”. Besides, in data set [1] (qwk × 3, 20 day study), the “Deaths NTR (non-treatment-related death)” value amounted to 0, the “Deaths TR (treatment-related death)” value was found to be 0, the “Regressions CR (complete regression)” value is 0 and the “Regressions PR (partial regression)” value came to 0. Also, in data set [1] (qwk × 3), the “% TGI, percent tumor growth inhibition compared to Group 1” value is on record as 34% and the “MTV (n) Day 20, median tumor volume” value was 453 (8) mm^2. The “Maximum tolerated dose (MTD)” value in data set [2] is 5 mg/kg. For the same compound, the “Lifetime limit (cumulative dose)” value in data set [4] is < 450 mg/m^2.
